Assay results: article PMC10380841, “Synthesis, Characterization and Cytotoxic Evaluation of New Pyrrolo[1,2-b]pyridazines Obtained via Mesoionic Oxazolo-Pyridazinones” (International Journal of Molecular Sciences, 2023)
Entries after “also recorded” stand apart in the source; their conditions may differ. Like-named read-outs stand apart in the source and are kept apart here.

Tests used:
[1] = system: Triticum aestivum L.; experiment: Triticum test, phytotoxicity (main root length); type: in vivo; conditions: 10–1000 µM
Experimental: Phytobiological testing (Triticum test) was performed by the Constantinescu method which consists in determining the maximum active dilution of a compound. Depending on the duration of action, it can influence root elongation and the […] film. […] Embryonic wheat roots were obtained by germinating homogeneous wheat caryopses in Linhart pots. Then the caryopses with a main root length of 1 cm were placed in the test solutions. For the determination of the action of each compound, five dilutions in the concentration range of 10–1000 µM were obtained and 11 caryopses were placed in them. Petri dishes containing 15 mL of diluted solution were kept under constant conditions of temperature (25 °C), and humidity (60%), in the absence of light. […] The results were expressed in comparison with a 1% DMSO control.
Statistical analyses were performed using the computing and programming environment R, R, v. 4.2.1 [68], under Rstudio, v. 2022.07.2+576 “Spotted Wakerobin” for Windows (RStudio, PBC, Boston, 2022), both for the Triticum and Artemia tests. It used a parametric mixed-effects model (R package “lme4”) and a robust mixed-effects model (R package “robustlmm”), in which root length measurements (Triticum) from all three days were used as the dependent variable, whereas compound, concentration and time were treated as fixed effects, with time (day of measurement) also treated as a random effect. Assessing statistical significance for mixed-effects statistical models is controversial and complex, but as a pragmatic way of working, we have estimated p-values using the Kenward–Rogers approximation (R package “sjPlot”). A variety of R base functions and R packages were used to diagnose the regression models (“car” [72], “MASS” [73], and “gvlma” [74]). Mixed boxplot–dotplot plots were generated using the “ggplot2” package.
The “drc” R package was used to estimate IC50 values for the Triticum bioassay by nonlinear modeling. For Triticum, the relationship between root length and concentration was modeled using Weibull functions with 2, 3, or 4 parameters, depending on the data distribution, the models being selected from a range of several models with different functions and parameters, based on the Akaike’s information criterion (AIC).

[2] = system: Triticum vulgare root tips; experiment: Microscopic examination of Triticum root tips (mitotic film changes); type: in vivo; conditions: 1000 μM, 24 h contact
Experimental: Microscopic examination of Triticum vulgare root tips followed the mitotic film changes induced by the tested compounds. Observations were made after 24 h of contact of the caryopses with the test solutions. The study was made in comparison with DMSO control maintained under the same conditions as the samples. To obtain microscopic preparations, sectioning of wheat embryonic roots was carried out at about 5 mm from the tip and stained with dilute […] according to the La Cour procedure. The examination was conducted on a Euromex oxion series 110–240 V/50–60 Hz microscope with digital camera CEMEX 5 DC 5000 C and 40× and 100× lenses with cedar oil immersion (Sigma-Aldrich St. Louis, MO, USA).

[3] = Daphnia magna toxicity assay; type: in vivo; conditions: Daphnia magna, in vivo; 48 h
Experimental: (§1) Young organisms of Daphnia magna were selected according to their size from a parthenogenetic culture maintained in an artificial medium for 24 h before the bioassay. The determination was conducted in tissue culture plates with 12 wells (Greiner Bio-One, Monroe, NC, USA), with 10 organisms in each well, and a final volume of 3 mL per sample [65, 66]. As a negative control, DMSO was used at a concentration of 1%. All compounds were tested at six different concentration levels, ranging from 12.5 to 500 μg/mL. All assessments were performed in duplicate.

[4] = system: Daphnia magna Straus; experiment: Daphnia magna toxicity assay; type: in vivo; conditions: 48 h
Experimental: as §1

[5] = system: LoVo colon adenocarcinoma cells; experiment: MTS cytotoxicity assay, LoVo; type: cell-based; conditions: Homo sapiens, 400 μM, read-out: cell viability
[6] = system: SK-OV-3 ovary adenocarcinoma cells; experiment: MTS cytotoxicity assay, SK-OV-3; type: cell-based; conditions: Homo sapiens; SK-OV-3, 400 μM, 24 h; read-out: cell viability

With `CCOC(=O)c1cc(CC)n2nc(-c3ccc(F)cc3)ccc12` [Compound 5e, Ethyl 7-ethyl-2-(4-fluorophenyl)pyrrolo[1,2-b]pyridazine-5-carboxylate] the “effect on root length” value ([1]; vs 1% DMSO control) was “concentration-dependent inhibitory effect”, the IC50 ([1]; Triticum aestivum, 72 h, Triticum root length, measured over three days) was 607 µM and the “mitotic film / cell changes in root tips” value [2] was “undulated cell walls and modified shaped nuclei; also recorded: mitoinhibition”. The LC50 at 48 h [3] was 675 µM, the “toxicity on Daphnia magna” value [4] was “moderate toxicity” and the viability at 400 µM ([5]; 24 h) was 82.2%. The viability at 400 µM ([5]; 48 h) was 67.4% and the viability at 400 µM [6] was 87.5%.
